Measured values published in patent US9375411B2, “Uses and methods for the treatment of liver diseases or conditions” (Verlyx Pharma Inc., priority 2012, dated 2016).
Several values for one entry are separate records, joined by “and”; a condition that tells them apart may be missing. Equal values may be shown once. Read-outs that look alike come from different tables or passages of the source.

Tests used:
[1] = mice, PO 50 mg/kg
[2] = Repeated oral administration, tissue concentrations in mice; format: in vivo, Female Fox Chase SCID CB17 Mice
Method: In this experiment, mice from all groups were first injected with pentamidine via the IV route on Day 1 (5 mg/kg). Tissue concentrations were assessed 24 hours later (on Day 2), and weekly thereafter (Day 7 and 14) with no subsequent pentamidine administration. Starting on Day 2, groups 2 and 3 were given pentamidine once a day (QD) or twice a day (BID) respectively and tissue levels were measured 24 hours later (Day 3) and weekly thereafter for two weeks.

[3] = Repeat dose oral capsule or intravenous infusion, tissue concentrations and ratios; format: in vivo, Male Beagle Dogs; settings: Beagle dogs; for Kp / Tmax / AUC(0-t) / Cmax: male, dog
Method: Pharmacokinetics Study in Male Beagle Dogs. Three oral formulations were tested.
In this example, the pharmacokinetics and biodistribution are studied in Male Beagle Dogs. The Dog is a relevant model since the elimination rate from the different organs, mainly the liver, are closer to that observed in man. Three oral formulations were tested and compared to the injectable formulation: […]
The test item dosing formulation was administered once daily as a 2-hour intravenous infusion via the saphenous and/or cephalic vein using an infusion pump, using a temporary peripheral vein catheter attached to a syringe, for 2 consecutive days. The dose volume was 4 mL/kg and the infusion rate was 2 mL/kg/hour for all animals. The actual volume administered to each animal was calculated and adjusted based on the most recent practical body weight of each animal. The catheter was flushed with 0.9% Sodium Chloride for Injection, USP (saline) in order to ensure that the whole intended dose was administered to the animals, after which the temporary catheter was removed and discarded.
The test item was administered twice daily (targeted time: 12 hours apart) by oral capsule administration for 3 consecutive days to fasted animals (at least 4 hours prior to dosing). Food was returned 2 hours post-dose.
The number of capsules to be administered to each animal was fixed to 2 capsules/animals/occasion. If needed, following dosing, the oral cavity was rinsed with an appropriate volume of reverse osmosis water to facilitate swallowing. The oral cavity was inspected following dosing to ensure that the capsules have been swallowed.
The following tables present the different Pharmacokinetic parameters for IV and PO groups, the concentrations of pentamidine in different tissues and the tissue to blood and tissue to liver concentration ratios.

[4] = IV 5 mg/kg Day 1, then PO QD or BID
[5] = intravenous dosing, individual animals 1001-1006 and Mean
[6] = summary (group mean), Group 1 IV, Groups 2-4 oral capsules

## N=C(N)c1ccc(OCCCCCOc2ccc(C(=N)N)cc2)cc1 [pentamidine, pentamidine bis(2-hydroxyethanesulfonate)]
[1]
  Liver and kidney levels after PO administration versus blood: several folds that of blood
  muscle concentration after PO administration versus blood: several folds the concentration found in blood
[2]; [4]
  Kidney levels, effect of oral administration: not affected by oral administration
  liver concentrations under oral administration regimen: can be maintained to a desired concentration
[2]; IV 5 mg/kg Day 1, then none, PO QD or PO BID
  Kidneys, lung and muscle concentrations, difference between groups with or without PO: no significant difference between groups
[3]; IV dosing, Day 1
  Liver AUClast: 27072 µM·h
  Liver Cmax: 210 µM
  Lung AUClast: 1807.2 µM·h
  Lung Cmax: 13.4 µM
[3]; IV, *Based on AUC
  Tissue-to-Liver Lung, based on AUC: 6.67* %
  Tissue-to-Liver Muscle, based on AUC: 2.9* %
  Tissue-to-Liver Skin, based on AUC: 0.87* %
[3]; [5]
  Concentration Blood: 0.16 μmol/L and 0.07 μmol/L and 0.08 μmol/L (2×) and 0.121 μmol/L and 0.25 μmol/L
  Concentration Brain: 0.80 μmol/L (3×) and 0.70 μmol/L and 0.90 μmol/L and 0.50 μmol/L
  Concentration Heart: 22.30 µM and 13.90 µM and 15.80 µM and 20.20 µM and 10.10 µM and 14.20 µM
  Concentration Kidney: 53.10 µM and 38.30 µM and 48.70 µM and 55.80 µM and 44.80 µM and 39.70 µM
  Concentration Liver: 208 µM and 174 µM and 168 µM and 210 µM and 125 µM and 159 µM
  Concentration Lung: 11.56 µM and 11.52 µM and 13.39 µM and 10.48 µM and 9.80 µM and 11.80 µM
  Concentration Muscle: 5.28 µM and 4.98 µM and 5.29 µM and 6.11 µM and 2.82 µM and 5.56 µM
  Concentration Pancreas: 8.50 µM and 6.00 µM and 8.00 µM and 8.20 µM and 4.60 µM and 7.10 µM
  Concentration Skin: 1.45 μmol/L and 1.23 μmol/L and 1.41 μmol/L and 1.80 μmol/L and 1.63 μmol/L (2×)
[3]; [6]
  Tissue-to-Liver Brain: 0.46%
  Tissue-to-Liver Heart: 9.66%
  Tissue-to-Liver Kidney: 28.4%
  Tissue-to-Liver Lung: 6.74%
  Tissue-to-Liver Muscle: 2.9%
  Tissue-to-Liver Pancreas: 4.34%
  Tissue-to-Liver Skin: 0.91%
[3]; Beagle, brain/blood, intravenous, summary (group mean), Group 1 IV, Groups 2-4 oral capsules, read-out: Tissue-to-blood ratio Brain
  Kp: 6.19
[3]; Beagle, heart/blood, intravenous, summary (group mean), Group 1 IV, Groups 2-4 oral capsules, read-out: Tissue-to-blood ratio Heart
  Kp: 133
[3]; Beagle, kidney/blood, intravenous, summary (group mean), Group 1 IV, Groups 2-4 oral capsules, read-out: Tissue-to-blood ratio Kidney
  Kp: 386
[3]; Beagle, liver/blood, intravenous, summary (group mean), Group 1 IV, Groups 2-4 oral capsules, read-out: Tissue-to-blood ratio Liver
  Kp: 1690
[3]; Beagle, liver/blood, iv, 4 mg/kg/day, IV, *Based on AUC, read-out: Tissue-to-blood ratio Liver, based on AUC
  Kp: 922
[3]; Beagle, lung/blood, intravenous, summary (group mean), Group 1 IV, Groups 2-4 oral capsules, read-out: Tissue-to-blood ratio Lung
  Kp: 111
[3]; Beagle, lung/blood, iv, 4 mg/kg/day, IV, *Based on AUC, read-out: Tissue-to-blood ratio Lung, based on AUC
  Kp: 61.6
[3]; Beagle, muscle/blood, intravenous, summary (group mean), Group 1 IV, Groups 2-4 oral capsules, read-out: Tissue-to-blood ratio Muscle
  Kp: 48.7
[3]; Beagle, muscle/blood, iv, 4 mg/kg/day, IV, *Based on AUC, read-out: Tissue-to-blood ratio Muscle, based on AUC
  Kp: 8.01
[3]; Beagle, pancreas/blood, intravenous, summary (group mean), Group 1 IV, Groups 2-4 oral capsules, read-out: Tissue-to-blood ratio Pancreas
  Kp: 58.4
[3]; Beagle, skin/blood, intravenous, summary (group mean), Group 1 IV, Groups 2-4 oral capsules, read-out: Tissue-to-blood ratio Skin
  Kp: 14.4
[3]; Beagle, skin/blood, iv, 4 mg/kg/day, IV, *Based on AUC, read-out: Tissue-to-blood ratio Skin, based on AUC
  Kp: 26.8
[3]; beagle, brain / blood, iv, intravenous dosing, individual animals and mean, read-out: Tissue-to-blood ratio Brain
  Kp: 4.13
[3]; beagle, kidney / blood, iv, intravenous dosing, individual animals and mean, read-out: Tissue-to-blood ratio Kidney
  Kp: 370
[3]; beagle, pancreas / blood, iv, intravenous dosing, individual animals and mean, read-out: Tissue-to-blood ratio Pancreas
  Kp: 38
[3]; liver, 4 mg/kg/day, IV dosing, Day 1, read-out: Liver Tmax
  Tmax: 168 h
[3]; lung, 4 mg/kg/day, IV dosing, Day 1, read-out: Lung Tmax
  Tmax: 120 h
[3]; muscle, 4 mg/kg/day, IV dosing, Day 1, read-out: Muscle AUClast
  AUC(0-t): 786 µM·h
[3]; muscle, 4 mg/kg/day, IV dosing, Day 1, read-out: Muscle Cmax
  Cmax: 6.1 µM
[3]; muscle, 4 mg/kg/day, IV dosing, Day 1, read-out: Muscle Tmax
  Tmax: 168 h
[3]; skin, 4 mg/kg/day, IV dosing, Day 1, read-out: Skin AUClast
  AUC(0-t): 235 µM·h
[3]; skin, 4 mg/kg/day, IV dosing, Day 1, read-out: Skin Cmax
  Cmax: 1.8 µM
[3]; skin, 4 mg/kg/day, IV dosing, Day 1, read-out: Skin Tmax
  Tmax: 168 h
